In US9409866B2, “Pyridine-2-amides useful as CB2 agonists” (Hoffmann-La Roche Inc., priority 2012, dated 2016):
Like-named read-outs stand apart in the source and are kept apart here.

Legend:
human CB1 receptors = human CB1 receptors (Homo sapiens (Human), UniProt P21554); assay: functional cAMP assay, CHO cells expressing human CB1; type: cell-based
Procedure, shortened: (§1)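 CHO cells with human CB1 or CB2 were switched to Krebs Ringer bicarbonate buffer with 1 mM IBMX for 30 min at 30 °C, then given compound for 30 min at 30 °C. cAMP was measured by time-resolved FRET against a cAMP standard curve, and EC50 values were calculated.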

human CB2 receptors = human CB2 receptors (Homo sapiens (Human), UniProt P34972); assay: functional cAMP assay, CHO cells expressing human CB2; type: cell-based
human CB2 receptors, sequence (P34972 whole entry): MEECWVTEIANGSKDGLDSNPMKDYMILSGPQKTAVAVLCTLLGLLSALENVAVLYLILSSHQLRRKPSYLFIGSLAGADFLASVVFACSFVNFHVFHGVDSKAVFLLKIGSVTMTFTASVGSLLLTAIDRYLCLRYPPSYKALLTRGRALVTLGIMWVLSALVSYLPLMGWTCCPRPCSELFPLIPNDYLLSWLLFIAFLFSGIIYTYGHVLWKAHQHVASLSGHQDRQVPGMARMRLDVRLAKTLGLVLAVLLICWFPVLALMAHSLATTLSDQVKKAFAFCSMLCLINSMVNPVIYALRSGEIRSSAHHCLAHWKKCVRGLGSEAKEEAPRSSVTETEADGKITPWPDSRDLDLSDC
Procedure, shortened: as §1

[1] = functional cAMP assay, CHO cells expressing human CB1; read-out: Human CB1 EC50
[2] = Human CB1 EC50 (uM), functional cAMP assay, CHO cells expressing human CB1
[3] = read-out: Human CB1 EC50; functional cAMP assay, CHO cells expressing human CB1

human CB1 receptors, sequence (P21554 whole entry): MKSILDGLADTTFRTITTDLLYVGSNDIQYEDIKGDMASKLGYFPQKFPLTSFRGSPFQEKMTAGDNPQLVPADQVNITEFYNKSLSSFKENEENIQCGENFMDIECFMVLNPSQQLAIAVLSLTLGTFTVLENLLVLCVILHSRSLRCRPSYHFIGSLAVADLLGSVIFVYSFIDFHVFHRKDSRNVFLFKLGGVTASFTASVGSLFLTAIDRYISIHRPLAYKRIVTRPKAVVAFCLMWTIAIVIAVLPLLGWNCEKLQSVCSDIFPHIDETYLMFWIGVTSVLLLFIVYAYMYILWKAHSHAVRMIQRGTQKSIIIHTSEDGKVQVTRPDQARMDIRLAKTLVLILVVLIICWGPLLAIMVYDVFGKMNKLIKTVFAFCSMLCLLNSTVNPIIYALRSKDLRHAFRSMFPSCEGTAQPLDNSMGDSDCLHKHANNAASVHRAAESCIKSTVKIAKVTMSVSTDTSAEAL

NC(=O)[C@H]1CC(F)(F)CN1C(=O)c1cc(OCC(F)(F)F)c(C2CC2)cn1 [Example 122, (2R)-1-[5-cyclopropyl-4-(2,2,2-trifluoroethoxy)pyridine-2-carbonyl]-4,4-difluoropyrrolidine-2-carboxamide]
EC50 (human CB1 receptors; [1]): > 10 µM
EC50 (human CB2 receptors; read-out: Human CB2 EC50): 0.399 µM

CC(C)(C)C(NC(=O)c1cc(OCC(F)(F)F)c(C2CC2)cn1)c1nccs1 (stereo not drawn) [Example 50, 5-Cyclopropyl-4-(2,2,2-trifluoro-ethoxy)-pyridine-2-carboxylic acid (2,2-dimethyl-1-thiazol-2-yl-propyl)-amide]
EC50 (human CB1 receptors; [1]): > 10 µM
EC50 (human CB2 receptors; read-out: Human CB2 EC50): 0.0058 µM

Cc1nc(C(C)(NC(=O)c2cc(OCC(F)(F)F)c(N3CCC(F)(F)C3)cn2)C2CC2)no1 (stereo not drawn) [Example 79, 5-(3,3-Difluoro-pyrrolidin-1-yl)-4-(2,2,2-trifluoro-ethoxy)-pyridine-2-carboxylic acid [1-cyclopropyl-1-(5-methyl-[1,2,4]oxadiazol-3-yl)-ethyl]-amide]
EC50 (human CB1 receptors; [1]): 0.19 µM
EC50 (human CB2 receptors; read-out: Human CB2 EC50): 0.0065 µM

CC(C)[C@@](C)(CO)NC(=O)c1cc(OCC2CC2)c(Cl)cn1 [Example 10, 5-Chloro-4-cyclopropylmethoxy-pyridine-2-carboxylic acid ((S)-1-hydroxymethyl-1,2-dimethyl-propyl)-amide]
EC50 (human CB1 receptors; [1]): > 10 µM
EC50 (human CB2 receptors; read-out: Human CB2 EC50): 0.0119 µM

CC(CC1CC1)(NC(=O)c1cc(OCC(F)(F)F)c(C2CC2)cn1)c1noc(N)n1 (stereo not drawn) [Example 165, N-[2-(5-amino-1,2,4-oxadiazol-3-yl)-1-cyclopropylpropan-2-yl]-5-cyclopropyl-4-(2,2,2-trifluoroethoxy)pyridine-2-carboxamide]
EC50 (human CB1 receptors; [1]): > 10 µM
EC50 (human CB2 receptors; read-out: Human CB2 EC50): 0.022 µM

Cc1nc([C@@](C)(CC2CC2)NC(=O)c2cc(OCC(F)(F)F)c(N3CC(F)(F)C3)cn2)no1 (single isomer, unassigned) [Example 91, 5-(3,3-Difluoro-azetidin-1-yl)-4-(2,2,2-trifluoro-ethoxy)-pyridine-2-carboxylic acid [2-cyclopropyl-1-methyl-1-(5-methyl-[1,2,4]oxadiazol-3-yl)-ethyl]-amide]
EC50 (human CB1 receptors; [2]): > 10 µM
EC50 (human CB2 receptors; Human CB2 EC50 (uM)): 0.0303 µM

C[C@H](Oc1cc(C(=O)NC(c2nnn(C)n2)C(C)(C)C)ncc1C1CC1)C(F)(F)F (stereo partly drawn) [Example 216, 5-cyclopropyl-N-[2,2-dimethyl-1-(2-methyltetrazol-5-yl)propyl]-4-[(2S)-1,1,1-trifluoropropan-2-yl]oxypyridine-2-carboxamide]
EC50 (human CB1 receptors; [1]): > 10 µM
EC50 (human CB2 receptors; read-out: Human CB2 EC50): 0.0047 µM

O=C(NCC1(O)CCCC1)c1cc(OCC2CC2)c(C2CC2)cn1 [Example 56, 5-Cyclopropyl-4-cyclopropylmethoxy-pyridine-2-carboxylic acid (1-hydroxy-cyclopentylmethyl)-amide]
EC50 (human CB1 receptors; [1]): > 10 µM
EC50 (human CB2 receptors; read-out: Human CB2 EC50): 0.0181 µM

Cc1nc([C@](C)(CC(C)(C)C)NC(=O)c2cc(OCC(F)(F)F)c(C3CC3)cn2)no1 (single isomer, unassigned) [Example 105, 5-Cyclopropyl-4-(2,2,2-trifluoro-ethoxy)-pyridine-2-carboxylic acid [1,3,3-trimethyl-1-(5-methyl-[1,2,4]oxadiazol-3-yl)-butyl]-amide]
EC50 (human CB1 receptors; [2]): 0.33 µM
EC50 (human CB2 receptors; Human CB2 EC50 (uM)): 0.0023 µM

Cc1nc(C(C)(CC2CC2)NC(=O)c2cc(OCC(F)(F)F)c(C3(O)COC3)cn2)no1 (stereo not drawn) [Example 123, N-[1-cyclopropyl-2-(5-methyl-1,2,4-oxadiazol-3-yl)propan-2-yl]-5-(3-hydroxyoxetan-3-yl)-4-(2,2,2-trifluoroethoxy)pyridine-2-carboxamide]
EC50 (human CB1 receptors; [1]): > 10 µM
EC50 (human CB2 receptors; read-out: Human CB2 EC50): 0.998 µM

Cn1nnc(C(NC(=O)c2cc(OCC(F)(F)F)c(C3CC3)cn2)C(C)(C)C)n1 (single isomer, unassigned) [Example 209, 5-cyclopropyl-N-[2,2-dimethyl-1-(2-methyltetrazol-5-yl)propyl]-4-(2,2,2-trifluoroethoxy)pyridine-2-carboxamide]
EC50 (human CB1 receptors; [2]): > 10 µM
EC50 (human CB2 receptors; Human CB2 EC50 (uM)): 0.0048 µM

CNC(=O)C(C)(CC1CC1)NC(=O)c1cc(OCC(F)(F)F)c(C2CC2)cn1 (stereo not drawn) [Example 189, 5-cyclopropyl-N-[3-cyclopropyl-2-methyl-1-(methylamino)-1-oxopropan-2-yl]-4-(2,2,2-trifluoroethoxy)pyridine-2-carboxamide]
EC50 (human CB1 receptors; [1]): > 10 µM
EC50 (human CB2 receptors; read-out: Human CB2 EC50): 0.292 µM

Cc1nnc(C(NC(=O)c2cc(OCC(F)(F)F)c(C3CC3)cn2)C(C)(C)C)o1 (single isomer, unassigned) [Example 179, 5-cyclopropyl-N-[2,2-dimethyl-1-(5-methyl-1,3,4-oxadiazol-2-yl)propyl]-4-(2,2,2-trifluoroethoxy)pyridine-2-carboxamide]
EC50 (human CB1 receptors; [3]): > 10 µM
EC50 (human CB2 receptors; Human CB2 EC50 (uM)): 0.0351 µM

Cc1csc(C2(NC(=O)c3cc(OCC(F)(F)F)c(C4CC4)cn3)CCOCC2)n1 [Example 152, 5-cyclopropyl-N-[4-(4-methyl-1,3-thiazol-2-yl)oxan-4-yl]-4-(2,2,2-trifluoroethoxy)pyridine-2-carboxamide]
EC50 (human CB1 receptors; [1]): > 10 µM
EC50 (human CB2 receptors; read-out: Human CB2 EC50): 0.185 µM

CC1(C(NC(=O)c2cc(OCC(F)(F)F)c(C3CC3)cn2)C(N)=O)COC1 (single isomer, unassigned) [Example 269, N-[2-amino-1-(3-methyloxetan-3-yl)-2-oxoethyl]-5-cyclopropyl-4-(2,2,2-trifluoroethoxy)pyridine-2-carboxamide]
EC50 (human CB1 receptors; [3]): > 10 µM
EC50 (human CB2 receptors; Human CB2 EC50 (uM)): 0.771 µM

CCCC(C)(CO)NC(=O)c1cc(OCC2CC2)c(Cl)cn1 (stereo not drawn) [Example 33, 5-Chloro-4-cyclopropylmethoxy-pyridine-2-carboxylic acid (1-hydroxymethyl-1-methyl-butyl)-amide]
EC50 (human CB1 receptors; [1]): > 10 µM
EC50 (human CB2 receptors; read-out: Human CB2 EC50): 0.0244 µM

COC(=O)C(C)C(C)(C)NC(=O)c1cc(OCC2CC2)c(Cl)cn1 (stereo not drawn) [Example 31, Methyl 3-({[5-chloro-4-(cyclopropylmethoxy)pyridin-2-yl]carbonyl}amino)-2,3-dimethylbutanoate]
EC50 (human CB1 receptors; [1]): > 10 µM
EC50 (human CB2 receptors; read-out: Human CB2 EC50): 0.0095 µM

Cc1nc(C(C)(CC2CC2)NC(=O)c2cc(OCC(F)(F)F)c(Cl)cn2)no1 (stereo not drawn) [Example 89, 5-Chloro-4-(2,2,2-trifluoro-ethoxy)-pyridine-2-carboxylic acid [2-cyclopropyl-1-methyl-1-(5-methyl-[1,2,4]oxadiazol-3-yl)-ethyl]-amide]
EC50 (human CB1 receptors; [1]): > 10 µM
EC50 (human CB2 receptors; read-out: Human CB2 EC50): 0.0483 µM

C[C@H](Oc1cc(C(=O)NC(C(=O)N(C)C)C(C)(C)C)ncc1C1CC1)C(F)(F)F (stereo partly drawn) [Example 201, 5-cyclopropyl-N-[1-(dimethylamino)-3,3-dimethyl-1-oxobutan-2-yl]-4-[(2S)-1,1,1-trifluoropropan-2-yl]oxypyridine-2-carboxamide]
EC50 (human CB1 receptors; [1]): > 10 µM
EC50 (human CB2 receptors; read-out: Human CB2 EC50): 0.0024 µM

Cc1nc([C@@](C)(CC(C)(C)C)NC(=O)c2cc(OCC(F)(F)F)c(C3CC3)cn2)no1 (single isomer, unassigned) [Example 104, 5-Cyclopropyl-4-(2,2,2-trifluoro-ethoxy)-pyridine-2-carboxylic acid [1,3,3-trimethyl-1-(5-methyl-[1,2,4]oxadiazol-3-yl)-butyl]-amide]
EC50 (human CB1 receptors; [2]): > 10 µM
EC50 (human CB2 receptors; Human CB2 EC50 (uM)): 0.0298 µM

O=C(NC(c1ccccn1)C(F)(F)F)c1cc(OCC2CC2)c(C2CC2)cn1 (stereo not drawn) [Example 46, 5-Cyclopropyl-4-cyclopropylmethoxy-pyridine-2-carboxylic acid (2,2,2-trifluoro-1-pyridin-2-yl-ethyl)-amide]
EC50 (human CB1 receptors; [1]): > 10 µM
EC50 (human CB2 receptors; read-out: Human CB2 EC50): 0.0067 µM

Cc1nnc(C(NC(=O)c2cc(O[C@@H](C)C(F)(F)F)c(C3(F)COC3)cn2)C(C)(C)C)o1 (stereo partly drawn) [Example 175, N-[2,2-dimethyl-1-(5-methyl-1,3,4-oxadiazol-2-yl)propyl]-5-(3-fluorooxetan-3-yl)-4-[(2S)-1,1,1-trifluoropropan-2-yl]oxypyridine-2-carboxamide]
EC50 (human CB1 receptors; [1]): > 10 µM
EC50 (human CB2 receptors; read-out: Human CB2 EC50): 0.0955 µM

CNC(=O)CC1(NC(=O)c2cc(OCC(F)(F)F)c(N3CC(F)(F)C3)cn2)COC1 [Example 233, 5-(3,3-difluoroazetidin-1-yl)-N-[3-[2-(methylamino)-2-oxoethyl]oxetan-3-yl]-4-(2,2,2-trifluoroethoxy)pyridine-2-carboxamide]
EC50 (human CB1 receptors; [1]): > 10 µM
EC50 (human CB2 receptors; read-out: Human CB2 EC50): 0.915 µM

Cc1nc(C(C)(CC2CC2)NC(=O)c2cc(OC(C)CF)c(C3CC3)cn2)no1 (single isomer, unassigned) [Example 289, 5-cyclopropyl-N-(1-cyclopropyl-2-(5-methyl-1,2,4-oxadiazol-3-yl)propan-2-yl)-4-(1-fluoropropan-2-yloxy)picolinamide]
EC50 (human CB1 receptors; [3]): > 10 µM
EC50 (human CB2 receptors; read-out: Human CB2 EC50): 0.001 µM

Cc1nc([C@@](C)(NC(=O)c2cc(OCC(F)(F)F)c(Cl)cn2)C2CC2)no1 (single isomer, unassigned; enantiomer b) [Example 75, 5-Chloro-4-(2,2,2-trifluoro-ethoxy)-pyridine-2-carboxylic acid [1-cyclopropyl-1-(5-methyl-[1,2,4]oxadiazol-3-yl)-ethyl]-amide (enantiomer B)]
EC50 (human CB1 receptors; [2]): > 10 µM
EC50 (human CB2 receptors; Human CB2 EC50 (uM)): 0.11 µM

CC(C)C[C@@](C)(CO)NC(=O)c1cc(OCC2CC2)c(Cl)cn1 [Example 27, (−)-5-Chloro-4-cyclopropylmethoxy-pyridine-2-carboxylic acid (1-hydroxymethyl-1,3-dimethyl-butyl)-amide]
EC50 (human CB1 receptors; [1]): > 10 µM
EC50 (human CB2 receptors; read-out: Human CB2 EC50): 0.0224 µM

Cc1nc([C@](C)(CS(C)(=O)=O)NC(=O)c2cc(OCC(F)(F)F)c(C3CC3)cn2)no1 (single isomer, unassigned) [Example 99, 5-Cyclopropyl-4-(2,2,2-trifluoro-ethoxy)-pyridine-2-carboxylic acid [2-methanesulfonyl-1-methyl-1-(5-methyl-[1,2,4]oxadiazol-3-yl)-ethyl]-amide]
EC50 (human CB1 receptors; [2]): > 10 µM
EC50 (human CB2 receptors; Human CB2 EC50 (uM)): 0.104 µM
